In brackets after ≈: the same amount, converted by molar mass.

We go through 11 compounds from patent EP0085842A1, “Antimycosic agents” (BAYER AG, priority 1982, dated 1983).

The test system of experiment [1] is Trichophyton mentagrophytes. Put plainly: Antimycotic in-vivo activity (local) in experimental guinea pig trichophytosis. Also noted: species or system Meerschweinchen; key: +++++: sehr gute Wirkung = keine Infektionszeichen am 12.-15.Tag p.i.; ++++: gute Wirkung = geringe Rötung, vereinzelt Schuppen; +++: Wirkung = Rötung, Schuppung, ohne Haarausfall; ++: schwache Wirkung = Rötung, Schuppung, Haarausfall; +: Spur Wirkung = flächiger Haarausfall, entzündliche Hautreaktion.

The subject of another experiment is Trichophyton mentagr. The experiment can be described thus: Antimycotic in-vitro activity, serial dilution test (MIC). It counts as cell-based, Trichophyton mentagrophytes. To be noted: Sabouraud's milieu d'epreuve, 20°C, 96 h, inoculum 5 x 10^4 Keime/ml, read-out: MHK-Werte in γ/ml Nährmedium Trichophyton mentagr. How it is done: (§1) Versuchsbeschreibung: • Die in-vitro-Prüfungen wurden im Reihenverdünnungstest mit Keiminokula von durchschnittlich 5 x 10^4 Keimen/ml Substrat durchgeführt. Als Nährmedium dienten • a) für Dermatophyten und Schimmelpilze: Sabouraud's milieu d'epreuve • b) für Hefen: • Fleischextrakt-Traubenzucker-Bouillon.
(§2) Die Bebrütungstemperatur betrug 20°C, die Bebrütungsdauer lag bei 24 bis 96 Stunden bei Hefen und 96 Stunden bei Dermatophyten und Schimmelpilzen.

For another experiment, the system named is Candida-Zellen. The experiment can be described thus: Antimycotic in-vivo activity (oral) in mouse candidosis. Further details: species or system Mäuse vom Typ SPF-CF1. To be noted: for Wirkung: mice infected i.v. with Candida, oral 50 - 100 mg/kg one hour before and seven hours after infection, survivors on day 6 p.i.; for Wirkung compared with known compounds (A), (B), (C) and (D): mouse candidosis, oral 50 - 100 mg/kg. As for the experimental part: Mäuse vom Typ SPF-CF1 wurden intravenös mit 1 - 2 x 10^6 logarithmisch wachsenden Candida-Zellen, die in physiologischer Kochsalzlösung suspendiert werden, infiziert. Eine Stunde vor und sieben Sunden nach der Infektion werden die Tiere mit jeweils 50 - 100 mg/kg Körpergewicht der Präparate oral behandelt.
Unbehandelte Tiere starben 3 bis 6 Tage post infektionem. Die Überlebensrate am 6. Tag post infektionem betrug bei unbehandelten Kontrolltieren etwa 5 %.
+++++ = sehr gute Wirkung = 90 % Überlebende am 6.Tag p.i. ++++ = gute Wirkung = 80 % Überlebende am 6.Tag p.i. +++ = Wirkung = 60 % Überlebende am 6.Tag p.i. ++ = schwache Wirkung = 40 % Überlebende am 6.Tag p.i. + = Spur Wirkung = unter 40 % Überlebende am 6.Tag p.i. k.W. = keine Wirkung

The next experiment relates to Torulopsis glabrata. Put plainly: Antimycotic in-vitro activity, serial dilution test (MIC). It counts as cell-based. To be noted: Nakaseomyces glabratus; Fleischextrakt-Traubenzucker-Bouillon, 20°C, 24 to 96 h, inoculum 5 x 10^4 Keime/ml; read-out: MHK-Werte in γ/ml Nährmedium Torulopsis glabrata. How it is done:
as §1, §2

A further experiment has as its system Microsporum canis. The experiment is described as above. To be noted: Sabouraud's milieu d'epreuve, 20°C, 96 h, inoculum 5 x 10^4 Keime/ml, read-out: MHK-Werte in γ/ml Nährmedium Microsporum canis. Format: cell-based. As for the experimental part:
as §1, §2

For another experiment, the system named is Candida albicans. The description is as above. It counts as cell-based. The following applies: Fleischextrakt-Traubenzucker-Bouillon, 20°C, 24 to 96 h, inoculum 5 x 10^4 Keime/ml, read-out: MHK-Werte in γ/ml Nährmedium Candida albicans. As for the experimental part: as §1, §2
The subject of the next experiment is Aspergillus fumigatus. The experiment is described as above. Format: cell-based. The following applies: Sabouraud's milieu d'epreuve, 20°C, 96 h, inoculum 5 x 10^4 Keime/ml, read-out: MHK-Werte in γ/ml Nährmedium Aspergillus fumigatus. How it is done: as §1, §2
The mark [2] stands for this setting: local treatment, trichophytosis model.
Setting [3] is: local, 1 x daily from day 3 p.i., 15 %ige Lösung in Dimethylsulfoxid:Glycerin = 1:4, infection signs day 12-15 p.i.

With `CC(C)(CF)C(O)(COc1ccc(Cl)cc1Cl)Cn1cncn1` (centres unmarked) [Beispiel 9], the “Wirkung” value was “Wirkung bis gute Wirkung” in experiment [1] (setting [2]), “++++” in experiment [1] (setting [3]) and “+++ (Wirkung = 60 % Überlebende am 6.Tag p.i.)” in the experiment on Candida-Zellen. In addition, the MIC in the experiment with Trichophyton mentagr. was less than 1 µg/mL; with Torulopsis glabrata it was 4 µg/mL (≈ 11 µM); with Microsporum canis, 2 µg/mL (≈ 5.52 µM); in the experiment on Candida albicans it was 4 µg/mL (≈ 11 µM); in the experiment on Aspergillus fumigatus, 8 µg/mL (≈ 22.1 µM). In the experiment with Candida-Zellen, the “Wirkung compared with known compounds (A), (B), (C) and (D)” value (from here on “Wirkung compared with known compounds”) was “bessere Wirkung”.

As to `CC(C)(CF)C(O)(CSc1ccc(Cl)cc1)Cn1cncn1` (centres unmarked) [Beispiel 10], the “Wirkung” value is recorded as “Wirkung bis gute Wirkung” in experiment [1] (setting [2]), “++++” in experiment [1] (setting [3]) and “++++ (gute Wirkung = 80 % Überlebende am 6.Tag p.i.)” in the experiment on Candida-Zellen. Further, the MIC is less than 1 µg/mL in the experiment on Trichophyton mentagr.; 16 µg/mL (≈ 46.5 µM) with Torulopsis glabrata; less than 1 µg/mL in the experiment with Microsporum canis; 4 µg/mL (≈ 11.6 µM) in the experiment with Candida albicans; less than 1 µg/mL in the experiment on Aspergillus fumigatus. In addition, the “Wirkung compared with known compounds” value with Candida-Zellen is reported as “bessere Wirkung”.

As to `CC(CF)(CF)C(O)(COc1ccc(Cl)cc1)Cn1cncn1` (centres unmarked) [Beispiel 13], the figures for the “Wirkung” value (in experiment [1] (setting [2]); in experiment [1] (setting [3]); with Candida-Zellen) were “Wirkung bis gute Wirkung”, “+++” and “+++++ (sehr gute Wirkung = 90 % Überlebende am 6.Tag p.i.)”, respectively. The MIC with Trichophyton mentagr. was less than 1 µg/mL; with Torulopsis glabrata it was 8 µg/mL (≈ 23.1 µM); in the experiment with Microsporum canis, 2 µg/mL (≈ 5.78 µM); with Candida albicans, less than 1 µg/mL; in the experiment with Aspergillus fumigatus it was 4 µg/mL (≈ 11.6 µM). Moreover, the “Wirkung compared with known compounds” value with Candida-Zellen is recorded as “bessere Wirkung”.

Consider `CC(CF)(CF)C(O)(COc1ccc(Cl)cc1Cl)Cn1cncn1` (centres unmarked) [Beispiel 14], for which the “Wirkung” value in experiment [1] (setting [2]) is listed as “Wirkung bis gute Wirkung”; in experiment [1] (setting [3]), “++++”; in the experiment with Candida-Zellen, “+++++ (sehr gute Wirkung = 90 % Überlebende am 6.Tag p.i.)”. Moreover, the MIC was less than 1 µg/mL in the experiment with Trichophyton mentagr.; 4 µg/mL (≈ 10.5 µM) in the experiment with Torulopsis glabrata; less than 1 µg/mL with Microsporum canis; less than 1 µg/mL with Candida albicans; 4 µg/mL (≈ 10.5 µM) with Aspergillus fumigatus. Also, the “Wirkung compared with known compounds” value with Candida-Zellen is on record as “bessere Wirkung”.

For `Cc1cc(Cl)ccc1OCC(O)(Cn1cncn1)C(C)(CF)CF` (centres unmarked) [Beispiel 15], the “Wirkung” value was “Wirkung bis gute Wirkung” in experiment [1] (setting [2]), “++++” in experiment [1] (setting [3]) and “++++ (gute Wirkung = 80 % Überlebende am 6.Tag p.i.)” in the experiment with Candida-Zellen. For the same compound, the MIC was less than 1 µg/mL with Trichophyton mentagr.; 4 µg/mL (≈ 11.1 µM) in the experiment with Torulopsis glabrata; less than 1 µg/mL with Microsporum canis; less than 1 µg/mL in the experiment on Candida albicans; 8 µg/mL (≈ 22.2 µM) in the experiment with Aspergillus fumigatus. The “Wirkung compared with known compounds” value in the experiment on Candida-Zellen is on record as “bessere Wirkung”.

As to `C=CC(C)(C)C(O)(COc1ccc(Cl)cc1)Cn1cncn1` (centres unmarked) [Beispiel 22], the Wirkung entry was “++” in experiment [1] (setting [3]) and “+++++ (sehr gute Wirkung = 90 % Überlebende am 6.Tag p.i.)” in the experiment on Candida-Zellen. Moreover, the MIC in the experiment on Trichophyton mentagr. was less than 1 µg/mL; in the experiment with Torulopsis glabrata it was 16 µg/mL (≈ 49.7 µM); in the experiment with Microsporum canis it was 4 µg/mL (≈ 12.4 µM); in the experiment on Candida albicans, 2 µg/mL (≈ 6.21 µM); in the experiment with Aspergillus fumigatus, less than 1 µg/mL. Besides, the “Wirkung compared with known compounds” value in the experiment with Candida-Zellen is listed as “bessere Wirkung”.

On to `CC(C)(CF)C(O)(CCc1ccc(Cl)cc1)Cn1cncn1` (centres unmarked) [Beispiel 25], for which the “Wirkung” value in experiment [1] (setting [2]) is reported as “Wirkung bis gute Wirkung”; in experiment [1] (setting [3]) it was “++++”; in the experiment on Candida-Zellen it was “+++ (Wirkung = 60 % Überlebende am 6.Tag p.i.)”. Besides, the MIC in the experiment on Trichophyton mentagr. was less than 1 µg/mL; with Torulopsis glabrata, 2 µg/mL (≈ 6.14 µM); in the experiment on Microsporum canis, less than 1 µg/mL; with Candida albicans, less than 1 µg/mL; in the experiment on Aspergillus fumigatus it was less than 1 µg/mL. Moreover, the “Wirkung compared with known compounds” value in the experiment with Candida-Zellen is recorded as “bessere Wirkung”.

For the compound `CC(C)(CF)C(O)(CCc1ccc(Cl)cc1Cl)Cn1cncn1` (centres unmarked) [Beispiel 26], the entries for the “Wirkung” value (in experiment [1] (setting [2]); in experiment [1] (setting [3]); with Candida-Zellen) were “Wirkung bis gute Wirkung”, “+++” and “+++ (Wirkung = 60 % Überlebende am 6.Tag p.i.)”, respectively. For the same compound, the MIC in the experiment with Trichophyton mentagr. is less than 1 µg/mL; in the experiment with Torulopsis glabrata it was 8 µg/mL (≈ 22.2 µM); in the experiment with Microsporum canis, 2 µg/mL (≈ 5.55 µM); in the experiment on Candida albicans it was 4 µg/mL (≈ 11.1 µM); in the experiment with Aspergillus fumigatus, less than 1 µg/mL. For the same compound, the “Wirkung compared with known compounds” value with Candida-Zellen is reported as “bessere Wirkung”.

With `CC(CF)(CF)C(O)(CCc1ccc(Cl)cc1Cl)Cn1cncn1` (centres unmarked) [Beispiel 27], the “Wirkung” value in experiment [1] (setting [2]) is reported as “Wirkung bis gute Wirkung”; in experiment [1] (setting [3]), “+++”; with Candida-Zellen, “+++ (Wirkung = 60 % Überlebende am 6.Tag p.i.)”. Besides, the MIC with Trichophyton mentagr. was less than 1 µg/mL; in the experiment on Torulopsis glabrata, 4 µg/mL (≈ 10.6 µM); in the experiment with Microsporum canis, 2 µg/mL (≈ 5.29 µM); with Candida albicans, 2 µg/mL (≈ 5.29 µM); in the experiment with Aspergillus fumigatus it was 2 µg/mL (≈ 5.29 µM). For the same compound, the “Wirkung compared with known compounds” value in the experiment with Candida-Zellen is “bessere Wirkung”.

In the case of `CC(CF)(CF)C(O)(CCc1ccc(Cl)cc1)Cn1cncn1` (centres unmarked) [Beispiel 28], the results for the “Wirkung” value (in experiment [1] (setting [2]); in experiment [1] (setting [3]); with Candida-Zellen) were “Wirkung bis gute Wirkung”, “++++” and “++++ (gute Wirkung = 80 % Überlebende am 6.Tag p.i.)”, respectively. Besides, the MIC was less than 1 µg/mL with Trichophyton mentagr.; 2 µg/mL (≈ 5.82 µM) in the experiment on Torulopsis glabrata; 2 µg/mL (≈ 5.82 µM) with Microsporum canis; 2 µg/mL (≈ 5.82 µM) in the experiment on Candida albicans; less than 1 µg/mL in the experiment on Aspergillus fumigatus. In the experiment on Candida-Zellen, the “Wirkung compared with known compounds” value is listed as “bessere Wirkung”.

For `CC(CF)(CF)C(O)(COc1ccc(Cl)cc1Cl)Cn1ccnc1` (centres unmarked) [Beispiel 32], the figures for the “Wirkung” value (in experiment [1] (setting [2]); in experiment [1] (setting [3]); in the experiment with Candida-Zellen) were “Wirkung bis gute Wirkung”, “+++” and “++++ (gute Wirkung = 80 % Überlebende am 6.Tag p.i.)”, respectively. For the same compound, the MIC was 2 µg/mL (≈ 5.27 µM) in the experiment with Trichophyton mentagr.; 8 µg/mL (≈ 21.1 µM) in the experiment with Torulopsis glabrata; 16 µg/mL (≈ 42.2 µM) in the experiment with Microsporum canis; 2 µg/mL (≈ 5.27 µM) with Candida albicans; 32 µg/mL (≈ 84.4 µM) in the experiment on Aspergillus fumigatus. Besides, the “Wirkung compared with known compounds” value in the experiment on Candida-Zellen is reported as “bessere Wirkung”.
